The record followed here is ChEMBL document CHEMBL1201862, “PubChem BioAssay data set” (2004).

Test systems include 786-0; A498; ACHN; CCRF-CEM; COLO 205; DLD-1; HCT-116; HT-29; OVCAR-5; SF-268; SF-295; SNB-19; TK-10; U-251; HOP-92; RPMI-8226.
What all share (experiment): DTP human tumour cell line panel, 48 h

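In this assay, cells in 96-well plates receive the compound at five concentrations for 48 hours. Endpoints are linearly interpolated between the surrounding concentrations. The concentration for 50% growth inhibition is given as GI50.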 The source made the active and inactive calls. Cut-off read from the data, not from the text of the source: active = GI50 up to about 1.1 µM and inactive = higher. Where only a bound is given, the exact number is not on record here.

Broadly, the GI50 is the concentration at which growth is held to half of that of the control. On to `CC(=O)Nc1ccc(-c2nnc(SCC(=O)Nc3ccc(Cl)cc3Cl)o2)cc1`, for which the GI50 in the assay with 786-0 was 16.1 µM (inactive); in the assay on A498 it was 40.8 µM (inactive); in the assay with ACHN it was 44.6 µM (inactive); in the assay on CCRF-CEM, 25.4 µM (inactive); with COLO 205, 28.6 µM (inactive); in the assay on DLD-1, 35.1 µM (inactive). Further, the GI50 is 40.5 µM (inactive) with HCT-116; 31.8 µM (inactive) in the assay with HT-29; > 100 µM (inactive) with OVCAR-5; 44.7 µM (inactive) in the assay with SF-268; 57.8 µM (inactive) with SF-295; 22.6 µM (inactive) in the assay with SNB-19. Besides, the GI50 with TK-10 was 96.8 µM (inactive); in the assay with U-251 it was 18 µM (inactive).
On to `COc1ccc(/C(=N/NC(N)=O)C(c2ccc(OC)cc2)C2C(=O)Oc3ccccc32)cc1` (stereo not drawn), for which the GI50 is > 100 µM (inactive) in the assay with 786-0; > 100 µM (inactive) in the assay on CCRF-CEM; > 100 µM (inactive) in the assay on COLO 205; > 100 µM (inactive) with DLD-1; > 100 µM (inactive) in the assay on HCT-116; 75 µM (inactive) in the assay on HOP-92. Also, the GI50 in the assay with HT-29, with OVCAR-5, in the assay on RPMI-8226, in the assay on SF-268, with SF-295 and with SNB-19 was > 100 µM (inactive) each time. The GI50 with U-251 was > 100 µM (inactive).
In the case of `CCCCOP1(=O)C=C(C)C(=C(Cl)Cl)C(C)=C1` (stereo not drawn), the GI50 is 12.5 µM (inactive) in the assay on 786-0; 6.43 µM (inactive) in the assay on ACHN; 4.2 µM (inactive) in the assay on CCRF-CEM; 5.25 µM (inactive) with COLO 205; 16.2 µM (inactive) in the assay with DLD-1; 2.3 µM (inactive) in the assay with HCT-116. For the same molecule, the GI50 in the assay with HOP-92 was 1.5 µM (inactive); with HT-29, 4.33 µM (inactive); in the assay on OVCAR-5, 45.1 µM (inactive); in the assay with RPMI-8226, 2.74 µM (inactive); in the assay on SF-268, 5.56 µM (inactive); in the assay with SF-295 it was 6.61 µM (inactive). In addition, the GI50 is 25.8 µM (inactive) in the assay with SNB-19, 11.2 µM (inactive) in the assay on TK-10 and 6.97 µM (inactive) in the assay with U-251.
With `CCOc1ccc(NC(=O)CC2Sc3ccccc3NC2=O)cc1` (stereo not drawn), the GI50 in the assay on 786-0 was 19.2 µM (inactive); in the assay on A498, > 100 µM (inactive); with ACHN, 49.8 µM (inactive); in the assay with CCRF-CEM, > 100 µM (inactive); in the assay with COLO 205, 41.1 µM (inactive); with DLD-1, 88.5 µM (inactive). For the same molecule, the GI50 in the assay with HCT-116 was 25.2 µM (inactive); in the assay on HT-29, 85.5 µM (inactive); in the assay on OVCAR-5, > 100 µM (inactive); with RPMI-8226, 65.5 µM (inactive); in the assay on SF-268, 53 µM (inactive); in the assay with SF-295 it was > 100 µM (inactive). In addition, the GI50 in the assay on SNB-19 is 54.1 µM (inactive); with TK-10, 60.5 µM (inactive); with U-251, 45 µM (inactive).
On to `OC12CC/C(=N/OCc3ccccc3)CC1c1ccccc12` (stereo not drawn), for which the GI50 in the assay on 786-0, in the assay on ACHN, with CCRF-CEM, in the assay with COLO 205, in the assay on DLD-1 and in the assay on HCT-116 was > 100 µM (inactive) throughout. In addition, the GI50 in the assay on HT-29, with OVCAR-5, with RPMI-8226, in the assay on SF-268, in the assay on SF-295 and in the assay with SNB-19 was > 100 µM (inactive) each time. Besides, the GI50 in the assay on TK-10 and in the assay with U-251 was > 100 µM (inactive) each time.
`CCOC(=O)c1cc(/C=C/C(C)=C/C(=O)OC)oc1-c1ccccc1`: the GI50 is > 100 µM (inactive) in the assay on 786-0; > 100 µM (inactive) in the assay on A498; 71.8 µM (inactive) in the assay with ACHN; 48.9 µM (inactive) with CCRF-CEM; > 100 µM (inactive) in the assay with COLO 205; 66.7 µM (inactive) in the assay with DLD-1. The GI50 in the assay with HCT-116 was 32.1 µM (inactive); in the assay with HT-29, > 100 µM (inactive); in the assay with OVCAR-5 it was > 100 µM (inactive); in the assay on RPMI-8226, 31.6 µM (inactive); in the assay with SF-268, 40.8 µM (inactive); with SF-295 it was 50.8 µM (inactive). In addition, the GI50 was 38.5 µM (inactive) in the assay on SNB-19, > 100 µM (inactive) in the assay with TK-10 and 50 µM (inactive) in the assay on U-251.
For the molecule `COC(=O)/C(=C/CC(N=C(c1ccccc1)c1ccccc1)C(=O)OC)N=C(c1ccccc1)c1ccccc1` (stereo not drawn), the GI50 with 786-0, with ACHN, with CCRF-CEM, in the assay with COLO 205, in the assay on DLD-1 and with HCT-116 was > 100 µM (inactive) each time. Also, the GI50 in the assay on HT-29 is > 100 µM (inactive); with RPMI-8226, 79.3 µM (inactive); in the assay with SF-268, > 100 µM (inactive); in the assay with SF-295 it was > 100 µM (inactive); in the assay on SNB-19 it was > 100 µM (inactive); in the assay on TK-10, > 100 µM (inactive). The GI50 in the assay with U-251 was > 100 µM (inactive).
In the case of `OC1(C23CC4CC(CC(C4)C2)C3)CSCC1(O)C12CC3CC(CC(C3)C1)C2` (stereo not drawn), the GI50 with 786-0 was > 100 µM (inactive); with CCRF-CEM, > 10 µM (inactive); in the assay on COLO 205, > 100 µM (inactive); in the assay with DLD-1, > 100 µM (inactive); in the assay with HCT-116, > 100 µM (inactive); in the assay on HOP-92 it was > 100 µM (inactive). Further, the GI50 with HT-29, with RPMI-8226, with SF-268, with SF-295, in the assay on SNB-19 and in the assay on TK-10 was > 100 µM (inactive) in each case.
For the molecule `CC1(C)CCC[C@@]2(C)C1CC[C@H]1CC(O)C3(C)CCC12C3` (stereo partly drawn), the GI50 in the assay on 786-0 is 17.5 µM (inactive); with ACHN, 17.9 µM (inactive); in the assay with CCRF-CEM, 26.4 µM (inactive); with DLD-1 it was 17.1 µM (inactive); in the assay with HCT-116, 17.3 µM (inactive); in the assay on HOP-92 it was 15.6 µM (inactive). The GI50 is 18.2 µM (inactive) in the assay on HT-29; 18.2 µM (inactive) with OVCAR-5; 25.8 µM (inactive) with RPMI-8226; 19.2 µM (inactive) in the assay with SF-268; 18 µM (inactive) with SNB-19; 14.4 µM (inactive) with TK-10. Besides, in the assay on U-251, the GI50 is 18.2 µM (inactive).
Consider `Cc1ccc2[nH]c3c(C)c4c(c(C)c3c2c1)CN(C)C=C4`, for which the GI50 was 0.325 µM (active) in the assay on 786-0; 6.55 µM (inactive) in the assay with ACHN; 0.285 µM (active) with COLO 205; 1.44 µM (inactive) in the assay with DLD-1; 2.32 µM (inactive) in the assay with HCT-116; 1.07 µM (active) in the assay on HOP-92. In addition, the GI50 is 2.46 µM (inactive) in the assay with HT-29; 3.1 µM (inactive) with OVCAR-5; 5.35 µM (inactive) with RPMI-8226; 0.353 µM (active) with SF-268; 0.423 µM (active) in the assay on SF-295; 0.52 µM (active) in the assay on SNB-19. The GI50 in the assay with TK-10 was 9.29 µM (inactive); with U-251, 0.271 µM (active).
